In publication PMC10674476, “Development of a Novel In Vitro Model to Study Lymphatic Uptake of Drugs via Artificial Chylomicrons” (Pharmaceutics, 2023):
Read-outs that look alike come from different tables or passages of the source. Marks after values point to notes of the source that are not given here.

Tests used:
[1] = In vitro lymphatic uptake model (Franz cell, Intralipid receiver, octanol-impregnated PVDF membrane); details: 37 °C, 0–4 h, rank among the four tested drugs
Protocol: The Franz Cell receiver compartment was filled with 12 mL of either Intralipid® or Intralipid® mixed with a potential inhibitor or enhancer and maintained at 37.0 ± 0.5 °C with magnetic stirring at 600 rpm, as shown in Figure 2. A synthetic 0.22 µm Polyvinylidene Fluoride (PVDF) membrane impregnated with octanol was placed between compartments. […] Two mL solutions of the model drugs were added to the donor compartment with the receiver compartment containing either Intralipid® or Intralipid® mixed with an enhancer or an inhibitor. At different time intervals (0–4 h), 0.2 mL samples were withdrawn, extracted, and analyzed for drug content using HPLC with a C18 column (150 mm × 4.6 mm i.d., 5 µm).
Therefore, this in vitro model was developed to replicate this in vivo process. Since certain lipophilic drugs are taken up from the intestinal lumen into enterocytes and subsequently enclosed within chylomicrons, the developed model was designed to include a donor compartment, resembling the intestinal lumen, where the drug solution is placed. Additionally, there was a receiver compartment that contains an artificial chylomicron medium, simulating the environment within enterocytes. These two compartments were separated by an octanol-immersed membrane, which served as a representation of the lipophilic cell membrane found in enterocytes (Figure 2).

[2] = cited from earlier work; for Density: ref ChemBK **, ChemSpider ***, # drugfuture.com, ## chemsrc.com; for PSA (polar surface area): ref DrugBank, in Å2 (unit assumed)
[3] = parameters: method as in PMID 32785853; details: Sprague-Dawley rats, cited from earlier work
[4] = parameters: method as in PMID 32785853, PMID 29109461; details: cited from earlier work
[5] = lipidic vehicles, lymph-cannulated rats; cited from earlier work
[6] = long-chain triglyceride formulation; cited from earlier work
[7] = parameters: method as in PMID 23200408; details: intraduodenal, thoracic duct-cannulated rats; cited from earlier work
[8] = parameters: method as in PMID 19916501; details: 30 mg/kg intraduodenal, mesenteric-cannulated rat; cited from earlier work
[9] = oral; cited from earlier work

Structure (SMILES) | lymphatic uptake (release into the receiver compartment) [1] | Density [2] | PSA (polar surface area) [2] | HBA (hydrogen-binding acceptors) ([2]; ref PubChem (* DrugBank)) | HBD (hydrogen binding donors) ([2]; ref PubChem (* DrugBank)) | LogP ([2]; ref PubChem (* DrugBank)) | increase in systemic exposure with lipids versus lipid-free formulations [3] | increase in systemic exposure with lipids versus lipid-free formulations ([3]; listed as CBD) | increase in plasma concentration with sesame oil [4] [fold] | increase in systemic exposure with sesame oil [4] [fold] | pKa ([2]; ref PubChem (* DrugBank)) | total systemic exposure [5] | total bioavailability [6] [%] | transport through the lymphatic system with soybean oil [7] | Cmax in the lymph relative to plasma [8] | systemic exposure compared to testosterone administration [9]
C=C(C)[C@@H]1CCC(C)=C[C@H]1c1c(O)cc(CCCCC)cc1O [Cannabidiol, cannabidiol] | moderate efficiency | 1.04 ^# g/cm^3 | 40.46 * | 2 * | 2 * | 6.3 * | factor of three | three-fold increase | 250 | 2.8 | – | – | – | – | – | –
CCCCN(CCCC)CCC(O)c1cc2c(Cl)cc(Cl)cc2c2cc(C(F)(F)F)ccc12 (stereo not drawn) [Halofantrine] | – | 1.2 *** g/cm^3 | 23.5 * | 5 | 1 | 8.9 | – | – | – | – | 14.47 | 22.7 % of the administered dose | 19.1 | – | – | –
O=c1c(O)c(-c2ccc(O)c(O)c2)oc2cc(O)cc(O)c12 [Quercetin, quercetin] | moderate efficiency | 1.8 ^## g/cm^3 | 127.45 * | 7 | 5 | 1.48 | – | – | – | – | – | – | – | notably improved | approximately five times higher | –
CO[C@H]1/C=C/O[C@@]2(C)Oc3c(C)c(O)c4c(O)c(c(/C=N/N5CCN(C)CC5)c(O)c4c3C2=O)NC(=O)/C(C)=C\C=C\[C@H](C)[C@H](O)[C@@H](C)[C@@H](O)[C@@H](C)[C@H](OC(C)=O)[C@@H]1C [Rifampicin, rifampicin] | least available | 1.178 ** g/cm^3 | 220.15 * | 15 | 6 | 4.9 | – | – | – | – | – | – | – | – | – | –
CCCCCCCCCCC(=O)O[C@H]1CC[C@H]2[C@@H]3CCC4=CC(=O)CC[C@]4(C)[C@H]3CC[C@]12C [testosterone undecanoate] | – | – | – | – | – | – | – | – | – | – | – | – | – | – | – | higher systemic exposure
